Source: US8748421B2, “Triazine compounds as P13 kinase and MTOR inhibitors” (Wyeth LLC, priority 2009, dated 2014)

Legend:
PI3K-alpha = PI3K-alpha (Homo sapiens, UniProt P42336); test: PI3K-alpha fluorescence polarization assay; settings: read-out: IC50 PI3Kα
PI3K-gamma = PI3K-gamma (Homo sapiens, UniProt P48736); test: PI3K-gamma fluorescence polarization assay; settings: read-out: IC50 PI3Kγ
Sequence of PI3K-gamma (P48736 whole entry, species assumed): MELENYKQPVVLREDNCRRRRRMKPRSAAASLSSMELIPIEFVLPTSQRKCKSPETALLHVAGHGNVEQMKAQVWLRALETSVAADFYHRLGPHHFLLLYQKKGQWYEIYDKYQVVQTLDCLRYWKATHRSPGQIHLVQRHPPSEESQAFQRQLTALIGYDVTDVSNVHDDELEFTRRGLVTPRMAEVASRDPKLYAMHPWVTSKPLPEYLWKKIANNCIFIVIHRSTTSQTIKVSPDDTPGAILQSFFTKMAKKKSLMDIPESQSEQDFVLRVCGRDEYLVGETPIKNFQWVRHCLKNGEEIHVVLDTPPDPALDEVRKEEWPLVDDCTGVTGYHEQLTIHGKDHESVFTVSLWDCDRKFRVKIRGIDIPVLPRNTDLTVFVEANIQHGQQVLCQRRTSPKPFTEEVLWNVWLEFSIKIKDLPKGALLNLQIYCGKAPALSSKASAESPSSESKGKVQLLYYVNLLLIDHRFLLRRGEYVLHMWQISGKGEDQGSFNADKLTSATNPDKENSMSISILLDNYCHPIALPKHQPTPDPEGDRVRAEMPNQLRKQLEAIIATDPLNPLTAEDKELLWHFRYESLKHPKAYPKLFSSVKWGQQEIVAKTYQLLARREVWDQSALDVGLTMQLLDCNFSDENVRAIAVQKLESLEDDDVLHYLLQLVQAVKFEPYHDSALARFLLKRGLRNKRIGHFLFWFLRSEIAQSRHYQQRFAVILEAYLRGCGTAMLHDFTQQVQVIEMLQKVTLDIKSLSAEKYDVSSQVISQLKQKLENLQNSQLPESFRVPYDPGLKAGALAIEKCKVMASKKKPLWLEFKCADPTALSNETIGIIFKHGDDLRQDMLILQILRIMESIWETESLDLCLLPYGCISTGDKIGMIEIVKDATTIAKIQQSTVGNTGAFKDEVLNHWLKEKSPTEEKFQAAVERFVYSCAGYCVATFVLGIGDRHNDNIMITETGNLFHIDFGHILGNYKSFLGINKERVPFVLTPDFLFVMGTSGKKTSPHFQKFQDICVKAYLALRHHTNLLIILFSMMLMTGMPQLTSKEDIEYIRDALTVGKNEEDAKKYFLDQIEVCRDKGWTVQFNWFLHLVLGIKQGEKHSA

Sequence of PI3K-alpha (P42336 whole entry, species assumed): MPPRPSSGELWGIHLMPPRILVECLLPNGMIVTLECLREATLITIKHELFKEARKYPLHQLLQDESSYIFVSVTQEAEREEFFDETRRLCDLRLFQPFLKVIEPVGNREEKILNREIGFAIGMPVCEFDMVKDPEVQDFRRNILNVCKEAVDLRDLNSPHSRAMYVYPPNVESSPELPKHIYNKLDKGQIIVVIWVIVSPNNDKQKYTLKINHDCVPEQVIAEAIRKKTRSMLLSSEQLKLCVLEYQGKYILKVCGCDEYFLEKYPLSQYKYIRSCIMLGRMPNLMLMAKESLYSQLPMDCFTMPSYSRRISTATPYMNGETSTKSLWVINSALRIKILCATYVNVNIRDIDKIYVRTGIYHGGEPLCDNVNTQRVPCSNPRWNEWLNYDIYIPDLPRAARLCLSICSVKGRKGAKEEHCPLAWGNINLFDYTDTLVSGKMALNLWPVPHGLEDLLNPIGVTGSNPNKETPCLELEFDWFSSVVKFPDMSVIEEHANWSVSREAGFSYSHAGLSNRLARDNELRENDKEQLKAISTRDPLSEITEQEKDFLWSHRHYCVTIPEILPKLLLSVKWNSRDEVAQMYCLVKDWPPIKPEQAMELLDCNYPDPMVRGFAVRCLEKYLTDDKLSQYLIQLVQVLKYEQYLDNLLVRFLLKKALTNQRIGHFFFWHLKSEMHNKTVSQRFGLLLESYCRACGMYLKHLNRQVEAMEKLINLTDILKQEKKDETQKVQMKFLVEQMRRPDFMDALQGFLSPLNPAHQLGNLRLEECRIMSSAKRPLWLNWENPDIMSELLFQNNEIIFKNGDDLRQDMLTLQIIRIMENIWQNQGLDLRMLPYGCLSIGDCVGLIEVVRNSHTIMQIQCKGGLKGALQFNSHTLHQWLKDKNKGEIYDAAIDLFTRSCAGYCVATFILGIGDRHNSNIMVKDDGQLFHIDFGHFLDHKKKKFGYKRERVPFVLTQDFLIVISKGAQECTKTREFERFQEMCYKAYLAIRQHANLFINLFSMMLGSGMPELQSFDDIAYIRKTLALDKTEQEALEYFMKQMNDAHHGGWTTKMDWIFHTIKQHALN
Sequence of PI3K-alpha (P27986 whole entry partner, species assumed): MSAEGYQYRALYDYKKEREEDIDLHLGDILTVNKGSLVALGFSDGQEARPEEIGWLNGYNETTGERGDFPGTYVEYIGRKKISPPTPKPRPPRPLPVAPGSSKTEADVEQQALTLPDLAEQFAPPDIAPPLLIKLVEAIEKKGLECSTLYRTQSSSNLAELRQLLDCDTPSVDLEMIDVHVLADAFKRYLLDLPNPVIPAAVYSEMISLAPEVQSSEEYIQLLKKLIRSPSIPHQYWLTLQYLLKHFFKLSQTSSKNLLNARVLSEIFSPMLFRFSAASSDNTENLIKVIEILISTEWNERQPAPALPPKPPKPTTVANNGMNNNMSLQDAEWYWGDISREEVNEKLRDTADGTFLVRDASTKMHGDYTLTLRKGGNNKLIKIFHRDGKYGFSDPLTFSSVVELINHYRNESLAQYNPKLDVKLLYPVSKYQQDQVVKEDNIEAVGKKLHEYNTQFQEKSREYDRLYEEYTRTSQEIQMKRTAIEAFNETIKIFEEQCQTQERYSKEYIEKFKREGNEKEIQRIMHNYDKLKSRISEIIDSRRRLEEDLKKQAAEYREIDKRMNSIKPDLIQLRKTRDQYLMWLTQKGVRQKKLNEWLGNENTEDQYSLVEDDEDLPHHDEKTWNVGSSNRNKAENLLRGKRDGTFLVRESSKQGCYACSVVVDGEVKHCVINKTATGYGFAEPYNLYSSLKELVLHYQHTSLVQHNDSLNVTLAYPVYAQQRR

Row | Compound | IC50 (PI3K-alpha) [µM] | IC50 (PI3K-gamma) [µM]
1 | C[C@@H]1CN(C(=O)c2ccc(NC(=O)Nc3ccc(-c4nc(N5CCOCC5)nc(N5CCOCC5)n4)cc3)cc2)CCN1 [Example 849, 1-{4-[4,6-di(morpholin-4-yl)-1,3,5-triazin-2-yl]phenyl}-3-(4-{[(3R)-3-methylpiperazin-1-yl]carbonyl}phenyl)urea] | 0.0003 | 0.00317
2 | C[C@H]1CN(C(=O)c2ccc(NC(=O)Nc3ccc(-c4nc(N5CCOCC5)nc(N5CCOCC5)n4)cc3)cc2)CCN1C [Example 864, 1-(4-{[(3S)-3,4-dimethylpiperazin-1-yl]carbonyl}phenyl)-3-{4-[4,6-di(morpholin-4-yl)-1,3,5-triazin-2-yl]phenyl}urea] | 0.001 | 0.0075
3 | CC(C)N1CCCN(c2nc(-c3ccc(NC(=O)Nc4ccc(C(=O)N5CC[C@@H](N(C)C)C5)cc4)cc3)nc(N3CCOCC3)n2)CC1 [Example 844, 1-(4-{[(3R)-3-(dimethylamino)pyrrolidin-1-yl]carbonyl}phenyl)-3-(4-{4-(morpholin-4-yl)-6-[4-(propan-2-yl)-1,4-diazepan-1-yl]-1,3,5-triazin-2-yl}phenyl)urea] | 0.021 | 0.238
4 | CN(C)[C@@H]1CCN(C(=O)c2ccc(NC(=O)Nc3ccc(-c4nc(N5CCOCC5)nc(N5CCOCC5)n4)cc3)cc2)C1 [Example 831, 1-(4-{[(3R)-3-(dimethylamino)pyrrolidin-1-yl]carbonyl}phenyl)-3-[4-(4,6-dimorpholin-4-yl-1,3,5-triazin-2-yl)phenyl]urea] | 0.00095 | –
5 | CC(C)N1CCCN(c2nc(-c3ccc(NC(=O)Nc4ccc(C(=O)N5CC[C@@H](N(C)C)C5)cc4)cc3)nc(N3CCOCC3)n2)CC1 [Example 847, 1-(4-{[(3R)-3-(dimethylamino)pyrrolidin-1-yl]carbonyl}phenyl)-3-(4-{4-(morpholin-4-yl)-6-[4-(propan-2-yl)-1,4-diazepan-1-yl]-1,3,5-triazin-2-yl}phenyl)urea] | 0.0105 | 0.0875
6 | COc1ccc(NC(=O)Nc2ccc(-c3nc(N4CCOCC4)nc(N4CCOCC4)n3)cc2)c(OC)c1 [Example 7, 1-(2,4-dimethoxyphenyl)-3-[4-(4,6-dimorpholin-4-yl-1,3,5-triazin-2-yl)phenyl]-urea] | – | > 100
7 | C[C@@H]1CN(C(=O)c2ccc(NC(=O)Nc3ccc(-c4nc(N5CCOCC5)nc(N5CCOCC5)n4)cc3)cc2)CCN1C1CCC1 [Example 851, 1-(4-{[(3R)-4-cyclobutyl-3-methylpiperazin-1-yl]carbonyl}phenyl)-3-{4-[4,6-di(morpholin-4-yl)-1,3,5-triazin-2-yl]phenyl}urea] | 0.00085 | 0.0056
8 | C[C@@H]1CN(C(=O)c2ccc(NC(=O)Nc3ccc(-c4nc(N5CCOCC5)nc(N5CCOCC5)n4)cc3)cc2)CCN1C [Example 850, 1-(4-{[(3R)-3,4-dimethylpiperazin-1-yl]carbonyl}phenyl)-3-{4-[4,6-di(morpholin-4-yl)-1,3,5-triazin-2-yl]phenyl}urea] | 0.00065 | 0.0061
9 | CC(C)N1CCCN(c2nc(-c3ccc(NC(=O)Nc4ccc(C(=O)N5CCCNCC5)cc4)cc3)nc(N3CCOCC3)n2)CC1 [Example 861, 1-[4-(1,4-diazepan-1-ylcarbonyl)phenyl]-3-(4-{4-(morpholin-4-yl)-6-[4-(propan-2-yl)-1,4-diazepan-1-yl]-1,3,5-triazin-2-yl}phenyl)urea] | 0.004 | 0.056
10 | COCCNC(=O)c1ccc(NC(=O)Nc2ccc(-c3nc(N4CCOCC4)nc(N4CCCN(C(C)C)CC4)n3)cc2)cc1 [Example 860, N-(2-methoxyethyl)-4-{[(4-{4-(morpholin-4-yl)-6-[4-(propan-2-yl)-1,4-diazepan-1-yl]-1,3,5-triazin-2-yl}phenyl)carbamoyl]amino}benzamide] | 0.057 | 0.434
11 | 1-[4-(4,6-dimorpholin-4-yl-1,3,5-triazin-2-yl)phenyl]-3-[3-(1-hydroxyethyl)phenyl]urea [Example 88] | 0.008 | 0.074
12 | C[C@H]1COCCN1c1nc(-c2ccc(NC(=O)Nc3ccc(C(=O)N4CC[C@@H](N(C)C)C4)cc3)cc2)nc(N2CCOC[C@@H]2C)n1 [Example 842, 1-(4-{4,6-bis[(3S)-3-methylmorpholin-4-yl]-1,3,5-triazin-2-yl}phenyl)-3-(4-{[(3R)-3-(dimethylamino)pyrrolidin-1-yl]carbonyl}phenyl)urea] | 0.00355 | 0.0545
13 | C[C@H]1CN(C(=O)c2ccc(NC(=O)Nc3ccc(-c4nc(C5CCOCC5)nc(N5CCOCC5)n4)cc3)cc2)CCN1 [Example 867, 1-(4-{[(3S)-3-methylpiperazin-1-yl]carbonyl}phenyl)-3-{4-[4-(morpholin-4-yl)-6-(tetrahydro-2H-pyran-4-yl)-1,3,5-triazin-2-yl]phenyl}urea] | 0.0004 | 0.007
14 | CC(C)N1CCCN(c2nc(-c3ccc(NC(=O)Nc4ccc(C(=O)N5CC[C@H](N(C)C)C5)cc4)cc3)nc(N3CCOCC3)n2)CC1 [Example 843, 1-(4-{[(3S)-3-(dimethylamino)pyrrolidin-1-yl]carbonyl}phenyl)-3-(4-{4-(morpholin-4-yl)-6-[4-(propan-2-yl)-1,4-diazepan-1-yl]-1,3,5-triazin-2-yl}phenyl)urea] | 0.0285 | 0.291
15 | Cc1ccc(NC(=O)Nc2ccc(-c3nc(NC4CN(C(=O)OC(C)(C)C)C4)nc(N4CCOCC4)n3)cc2)cc1 [Example 16, tert-butyl 3-{[4-(4-{[(4-methylphenyl)carbamoyl]amino}phenyl)-6-morpholin-4-yl-1,3,5-triazin-2-yl]amino}azetidine-1-carboxylate] | – | > 100
16 | CC(C)N1CCCN(c2nc(-c3ccc(NC(=O)Nc4ccc(C(=O)N(C)CCN(C)C)cc4)cc3)nc(N3CCOC[C@@H]3C)n2)CC1 [Example 854, N-[2-(dimethylamino)ethyl]-N-methyl-4-{[(4-{4-[(3S)-3-methylmorpholin-4-yl]-6-[4-(propan-2-yl)-1,4-diazepan-1-yl]-1,3,5-triazin-2-yl}phenyl)carbamoyl]amino}benzamide] | 0.00884 | 0.164
17 | C[C@H]1COCCN1c1nc(-c2ccc(NC(=O)Nc3ccc(C(=O)N4C5CCC4COC5)cc3)cc2)nc(N2CCOC[C@@H]2C)n1 [Example 839, 1-(4-{4,6-bis[(3S)-3-methylmorpholin-4-yl]-1,3,5-triazin-2-yl}phenyl)-3-[4-(3-oxa-8-azabicyclo[3.2.1]oct-8-ylcarbonyl)phenyl]urea] | 0.00665 | 0.029
18 | CC(=O)NC1CCN(C(=O)c2ccc(NC(=O)Nc3ccc(-c4nc(N5CCOC[C@@H]5C)nc(N5CCOC[C@@H]5C)n4)cc3)cc2)CC1 [Example 837, N-{1-[(4-{[(4-{4,6-bis[(3S)-3-methylmorpholin-4-yl]-1,3,5-triazin-2-yl}phenyl)carbamoyl]amino}phenyl)carbonyl]piperidin-4-yl}acetamide] | 0.0119 | 0.075
19 | CC(C)N1CCN(C(=O)c2ccc(NC(=O)Nc3ccc(-c4nc(N5CCOCC5)nc(N5CCOCC5)n4)cc3)cc2)C[C@H]1C [Example 852, 1-{4-[4,6-di(morpholin-4-yl)-1,3,5-triazin-2-yl]phenyl}-3-(4-{[(3R)-3-methyl-4-(propan-2-yl)piperazin-1-yl]carbonyl}phenyl)urea] | 0.0004 | 0.00555
20 | CC(C)N1CCCN(c2nc(-c3ccc(NC(=O)Nc4ccc(C(=O)N5CCOCC5)cc4)cc3)nc(N3CCOCC3)n2)CC1 [Example 859, 1-[4-(morpholin-4-ylcarbonyl)phenyl]-3-(4-{4-(morpholin-4-yl)-6-[4-(propan-2-yl)-1,4-diazepan-1-yl]-1,3,5-triazin-2-yl}phenyl)urea] | 0.0179 | 0.24
21 | O=C(Nc1ccncc1)Nc1ccc(-c2nc(OC3CNC3)nc(N3CCOCC3)n2)cc1 [Example 835, 1-{4-[4-(azetidin-3-yloxy)-6-morpholin-4-yl-1,3,5-triazin-2-yl]phenyl}-3-pyridin-4-ylurea] | 0.00415 | 0.0185
22 | CCN(CC)CCOC(=O)c1ccc(NC(=O)Nc2ccc(-c3nc(N4CCOCC4)nc(N4C5CCC4COC5)n3)cc2)cc1 [Example 675, 2-(diethylamino)ethyl 4-[({4-[4-morpholin-4-yl-6-(3-oxa-8-azabicyclo[3.2.1]oct-8-yl)-1,3,5-triazin-2-yl]phenyl}carbamoyl)amino]benzoate] | 0.021 | 0.136
23 | C[C@H]1CN(C(=O)c2ccc(NC(=O)Nc3ccc(-c4nc(C5CCOCC5)nc(N5CCOCC5)n4)cc3)cc2)CCN1C [Example 866, 1-(4-{[(3S)-3,4-dimethylpiperazin-1-yl]carbonyl}phenyl)-3-{4-[4-(morpholin-4-yl)-6-(tetrahydro-2H-pyran-4-yl)-1,3,5-triazin-2-yl]phenyl}urea] | 0.0016 | 0.0165
24 | CC1CNCCN1C(=O)c1ccc(NC(=O)Nc2ccc(-c3nc(N4CCOCC4)nc(N4CCOCC4)n3)cc2)cc1 (stereo not drawn) [Example 845, 1-{4-[4,6-di(morpholin-4-yl)-1,3,5-triazin-2-yl]phenyl}-3-{4-[(2-methylpiperazin-1-yl)carbonyl]phenyl}urea] | 0.00025 | 0.00275
25 | C[C@H]1COCCN1c1nc(-c2ccc(NC(=O)Nc3ccc(C(=O)N4CC[C@H](N(C)C)C4)cc3)cc2)nc(N2CCOC[C@@H]2C)n1 [Example 841, 1-(4-{4,6-bis[(3S)-3-methylmorpholin-4-yl]-1,3,5-triazin-2-yl}phenyl)-3-(4-{[(3S)-3-(dimethylamino)pyrrolidin-1-yl]carbonyl}phenyl)urea] | – | 0.107
26 | CN1CCN(C(=O)c2ccc(NC(=O)Nc3ccc(-c4nc(C5CCOCC5)nc(N5CCOCC5)n4)cc3)cc2)CC1 [Example 830, 1-{4-[(4-methylpiperazin-1-yl)carbonyl]phenyl}-3-{4-[4-morpholin-4-yl-6-(tetrahydro-2H-pyran-4-yl)-1,3,5-triazin-2-yl]phenyl}urea] | 0.00213 | –
27 | CN1CCN(c2ccc(NC(=O)Nc3ccc(-c4nc(-c5ccc(NC(=O)NC6CC6)cc5)nc(N5CC6CCC(C5)O6)n4)cc3)cc2)CC1 [Example 146, 1-cyclopropyl-3-(4-{4-[4-({[4-(4-methylpiperazin-1-yl)phenyl]carbamoyl}amino)phenyl]-6-(8-oxa-3-azabicyclo[3.2.1]oct-3-yl)-1,3,5-triazin-2-yl}phenyl)urea] | – | > 100
